Measured values from PubChem BioAssay (NCI).
“And” between values parts separate entries of the source, which are not always exact repeats. Equal values may be shown once.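 Cultured in 96-well plates, cells were exposed to test compound for 48 hours across five concentrations. GI50 = concentration required for 50% inhibition of growth. TGI marks complete inhibition of growth.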

Key:
Experiment in all cases: NCI anticancer screen, dose series, 48 h
[1] = test system: SF-295 CNS
[2] = test system: MDA-MB-231 breast
[3] = test system: RPMI-8226 leukemia
[4] = test system: MCF7 breast
[5] = test system: LOX IMVI melanoma
[6] = test system: NCI/ADR-RES ovarian
[7] = test system: CAKI-1 renal
[8] = test system: COLO 205 colon
[9] = test system: OVCAR-3 ovarian
[10] = test system: HCT-15 colon

Compound | GI50 [1] [µM] | TGI [1] [µM] | GI50 [2] [µM] | TGI [2] [µM] | GI50 [3] | TGI [3] | GI50 [4] [µM] | TGI [4] [µM] | GI50 [5] [µM] | TGI [5] [µM] | GI50 [6] [µM] | TGI [6] [µM] | GI50 [7] [µM] | TGI [7] [µM] | GI50 [8] | TGI [8] [µM] | GI50 [9] [µM] | TGI [9] [µM] | GI50 [10] [µM] | TGI [10] [µM]
CC[C@@H](C)/C=C(C)/C=C/C(=O)c1c(O)c(-c2ccc(OC(=O)[C@@]34CC[C@@](C)(C(=O)O3)C4(C)C)cc2)cn(O)c1=O | 1.99 | 26.9 | 1.83 | > 50 | 2.49 µM | > 50 µM | 1.82 | > 50 | 0.961 | > 50 | 1.46 | 10 | 1.6 | 11.9 | 15.2 µM | > 50 | 1.04 | > 50 | 1.17 | > 50
O=C(Nc1nc(-c2ccc(Cl)cc2)cs1)c1cc(O)c(O)c(O)c1 | 544 | 3280 | 141 | 3150 | 197 µM | 1680 µM | 349 | > 5000 | 174 | 810 | 183 | > 5000 | 115 | 660 | 584 µM | 1810 | 245 | 1080 | 150 | > 5000
COC(=O)C1C(C(=O)O)C2(c3ccccc3)C(=O)C1(c1ccccc1)C(c1ccccc1)=C2c1ccccc1 (stereo unspecified) | 22.9 | 71.2 | 19.4 | 38.5 | 15.7 µM | 45.7 µM | 19.6 | 37.6 | 27.8 | 89.7 | 18.4 | 34 | 20.2 | 40.9 | 18.8 µM | 39.3 | 19.7 | 50.4 | 32.5 | > 100
CCc1nc(C)cn1C(=O)OCc1nc2nc(Cl)nc(N3CCOCC3)c2[nH]1 | 2.79 | 11.7 | 1.39 | 2.83 | 0.696 µM | 3.1 µM | 0.633 | 2.44 | 1.02 | 2.33 | 2.64 | 9.02 | 0.406 | 1.71 | 1.37 µM | 2.94 | 0.636 | 1.98 | 0.677 | 2.22
C=CCn1c2ccccc2c2c3c(c4c5ccccc5n(CC=C)c4c21)C(=O)N(O)C3=O | 2.62 | 8.62 | 4.12 | 21.4 | 2.51 µM | 10.6 µM | 0.674 | 29.9 | 0.967 | 2.43 | 3.43 | 21.9 | 1.69 | 3.45 | 2.01 µM | 9.31 | 2.32 | 8.07 | 3.18 | 17
Nc1ccccc1C#C/C=C\C#Cc1ccccc1C#CCO | 6.8 | 16.7 | 7.73 | 28.7 | 24.3 µM | > 50 µM | 7.87 | > 50 | 1.36 | 8.97 | 6.17 | 21.4 | 4.1 | 18 | 11.8 µM | 31.6 | 6.63 | 18.5 | 4.92 | 18.3
COc1ccc2c(c1)C(=Nc1ccc(F)c(Cl)c1)c1c-2c(Nc2ccc(F)c(Cl)c2)nc2ccccc12 | 33 | > 100 | 23 | > 61.3 | > 60.4 µM | > 100 µM | 56.2 | > 100 | 51.8 | > 100 | 29.6 | > 72.9 | > 65.8 | > 100 | > 100 µM | > 100 | 42.7 | > 100 | > 71.3 | > 100
Cc1ccc(/C=N/NC(=O)c2ccccc2Oc2ccccc2)o1 | 27.9 | > 100 | 32.7 | > 100 | 23.8 µM | > 88.4 µM | 32.9 | > 100 | > 67.4 | > 100 | 25.9 | > 100 | 34.1 | > 100 | 61.3 µM | > 100 | 40.1 | > 100 | 37.9 | > 100
Nc1[nH]nc2nc(-c3cc(Cl)ccc3Cl)cc(-c3ccc(F)cc3)c12 | 25.7 | 73.4 | 19.9 | 61.1 | 18.4 µM | 50.5 µM | 11.8 | 37.5 | 19.3 | 38 | 23 | 59.9 | 26.9 | > 100 | 16.5 µM | 34.1 | 24 | 65.4 | 28.5 | > 100
CC1=CC(=O)N(c2cccc3c(N4C(=O)C=C(C)C4=O)cccc23)C1=O | > 46.7 | > 71.5 | 8.44 | 22.5 | 3.71 µM | 19 µM | 3.95 | 23.5 | 1.8 | 5.56 | 10.4 | > 89 | 3.61 | 13.8 | 0.988 µM | 2.65 | 1.54 | 5.9 | 2.67 | 10.2
Cc1sc(C(=O)c2cncnc2N[C@@H]2C[C@H](COS(N)(=O)=O)[C@@H](O)C2)cc1[C@@H]1NCCc2ccc(Cl)cc21 | 11 | 23.2 | 9.29 | 24.8 | 2.01 µM | 22.2 µM | 0.0138 | 17.3 | 0.0959 | 15.6 | 51.8 | > 100 | 1.63 | 25.5 | 0.041 µM | 11.8 | 4.98 | 21.7 | 6.64 | 21.1
CNC(=O)ON(C(C)=O)C(=O)NC |  | 267 | 28.8 | 78.4 | 41.4 µM and 25.2 µM | > 77.2 µM and 111 µM |  | 154 | 65.2 | 119 |  | 266 |  | 146 | > 70 µM and 47.5 µM | 142 | > 81.9 | 140 | > 76.4 | 109
